Laboratory results: PubChem BioAssay AID1259407 (Chemical Carcinogenesis Research Information System (CCRIS), 2018)
The source made the active and inactive calls. No rule for the calls is given here.

System: CCRIS mutagenicity, Ames/micronucleus/aberration tests
Assay: CCRIS mutagenicity studies
[1] = Test System: AMES SALMONELLA TYPHIMURIUM, Strain/Indicator: TA98, Metabolic Activation: NONE, Method: STANDARD PLATE
[2] = Test System: AMES SALMONELLA TYPHIMURIUM, Strain/Indicator: TA98, Metabolic Activation: RAT, LIVER, S-9, AROCLOR 1254, Method: STANDARD PLATE
[3] = Test System: AMES SALMONELLA TYPHIMURIUM, Strain/Indicator: TA100, Metabolic Activation: RAT, LIVER, S-9, AROCLOR 1254, Method: STANDARD PLATE
[4] = Test System: AMES SALMONELLA TYPHIMURIUM, Strain/Indicator: TA100, Metabolic Activation: NONE, Method: STANDARD PLATE

Structure (SMILES): O=C1CCCc2cc([N+](=O)[O-])c3ccccc3c21
- mutagenic call (Test System: AMES SALMONELLA TYPHIMURIUM, Strain/Indicator: TA98-1,8-DNP6, Metabolic Activation: NONE): inactive; negative
- mutagenic call (Test System: AMES SALMONELLA TYPHIMURIUM, Strain/Indicator: TA98-1,8-DNP6, Metabolic Activation: S-9): inactive; negative
- mutagenic call (Test System: AMES SALMONELLA TYPHIMURIUM, Strain/Indicator: TA98, Metabolic Activation: NONE): active; positive
- mutagenic call (Test System: AMES SALMONELLA TYPHIMURIUM, Strain/Indicator: TA98, Metabolic Activation: S-9): active; positive
- mutagenic call (Test System: AMES SALMONELLA TYPHIMURIUM, Strain/Indicator: TA98NR, Metabolic Activation: NONE): inactive; negative
- mutagenic call (Test System: AMES SALMONELLA TYPHIMURIUM, Strain/Indicator: TA98NR, Metabolic Activation: S-9): inactive; negative
- mutagenic call (Test System: AMES SALMONELLA TYPHIMURIUM, Strain/Indicator: TA100, Metabolic Activation: NONE): active; positive
- mutagenic call (Test System: AMES SALMONELLA TYPHIMURIUM, Strain/Indicator: TA100, Metabolic Activation: S-9): active; positive
- mutagenic call (Test System: AMES SALMONELLA TYPHIMURIUM, Strain/Indicator: TA100NR, Metabolic Activation: NONE): active; positive
- mutagenic call (Test System: AMES SALMONELLA TYPHIMURIUM, Strain/Indicator: TA100NR, Metabolic Activation: S-9): active; positive

Structure (SMILES): O=c1oc2cccc3ccc4c5ccccc5cc1c4c32
- mutagenic call [1]: inactive; negative
- mutagenic call [2]: active; positive
- mutagenic call [3]: active; positive

Structure (SMILES): O=P(O)(O)OCC(O)CO (stereo not drawn)
- mutagenic call [1]: inactive; negative
- mutagenic call [2]: inactive; negative
- mutagenic call [4]: inactive; negative
- mutagenic call [3]: inactive; negative
- mutagenic call (Test System: AMES SALMONELLA TYPHIMURIUM, Strain/Indicator: TA1535, Metabolic Activation: NONE, Method: STANDARD PLATE): inactive; negative
- mutagenic call (Test System: AMES SALMONELLA TYPHIMURIUM, Strain/Indicator: TA1535, Metabolic Activation: RAT, LIVER, S-9, AROCLOR 1254, Method: STANDARD PLATE): inactive; negative
- mutagenic call (Test System: AMES SALMONELLA TYPHIMURIUM, Strain/Indicator: TA1537, Metabolic Activation: NONE, Method: STANDARD PLATE): inactive; negative
- mutagenic call (Test System: AMES SALMONELLA TYPHIMURIUM, Strain/Indicator: TA1537, Metabolic Activation: RAT, LIVER, S-9, AROCLOR 1254, Method: STANDARD PLATE): inactive; negative
- mutagenic call (Test System: AMES SALMONELLA TYPHIMURIUM, Strain/Indicator: TA1538, Metabolic Activation: NONE, Method: STANDARD PLATE): inactive; negative
- mutagenic call (Test System: AMES SALMONELLA TYPHIMURIUM, Strain/Indicator: TA1538, Metabolic Activation: RAT, LIVER, S-9, AROCLOR 1254, Method: STANDARD PLATE): inactive; negative
- mutagenic call (Test System: E. COLI, Strain/Indicator: WP2, Metabolic Activation: NONE, Method: STANDARD PLATE): inactive; negative
- mutagenic call (Test System: E. COLI, Strain/Indicator: WP2, Metabolic Activation: RAT, LIVER, S-9, AROCLOR 1254, Method: STANDARD PLATE): inactive; negative

Structure (SMILES): O=C(O)CC(O)(CC(=O)O)C(=O)O
- mutagenic call (Test System: AMES SALMONELLA TYPHIMURIUM, Strain/Indicator: TA97, Metabolic Activation: NONE, Method: PREINCUBATION): inactive; negative
- mutagenic call (Test System: AMES SALMONELLA TYPHIMURIUM, Strain/Indicator: TA97, Metabolic Activation: NONE, Method: STANDARD PLATE): inactive; negative
- mutagenic call (Test System: AMES SALMONELLA TYPHIMURIUM, Strain/Indicator: TA97, Metabolic Activation: RAT, LIVER, S-9, AROCLOR 1254, Method: PREINCUBATION): inactive; negative
- mutagenic call (Test System: AMES SALMONELLA TYPHIMURIUM, Strain/Indicator: TA97, Metabolic Activation: RAT, LIVER, S-9, PHENOBARBITAL, Method: STANDARD PLATE): inactive; negative
- mutagenic call (Test System: AMES SALMONELLA TYPHIMURIUM, Strain/Indicator: TA97, Metabolic Activation: S-9, Method: PREINCUBATION): inactive; negative
- mutagenic call [1]: inactive; negative
- mutagenic call (Test System: AMES SALMONELLA TYPHIMURIUM, Strain/Indicator: TA98, Metabolic Activation: RAT, LIVER, S-9, PHENOBARBITAL, Method: STANDARD PLATE): inactive; negative
- mutagenic call [4]: inactive; negative
- mutagenic call (Test System: AMES SALMONELLA TYPHIMURIUM, Strain/Indicator: TA100, Metabolic Activation: RAT, LIVER, S-9, PHENOBARBITAL, Method: STANDARD PLATE): inactive; negative
- mutagenic call (Test System: AMES SALMONELLA TYPHIMURIUM, Strain/Indicator: TA102, Metabolic Activation: NONE, Method: PREINCUBATION): inactive; negative
- mutagenic call (Test System: AMES SALMONELLA TYPHIMURIUM, Strain/Indicator: TA102, Metabolic Activation: RAT, LIVER, S-9, AROCLOR 1254, Method: PREINCUBATION): inactive; negative
- mutagenic call (Test System: AMES SALMONELLA TYPHIMURIUM, Strain/Indicator: TA102, Metabolic Activation: S-9, Method: PREINCUBATION): inactive; negative
- mutagenic call (Test System: AMES SALMONELLA TYPHIMURIUM, Strain/Indicator: TA104, Metabolic Activation: NONE, Method: STANDARD PLATE): inactive; negative
- mutagenic call (Test System: AMES SALMONELLA TYPHIMURIUM, Strain/Indicator: TA104, Metabolic Activation: RAT, LIVER, S-9, PHENOBARBITAL, Method: STANDARD PLATE): inactive; negative

Structure (SMILES): Cc1ccc(NCCCl)cc1
- mutagenic call [1]: active; positive
- mutagenic call [4]: active; positive
- mutagenic call (Test System: AMES SALMONELLA TYPHIMURIUM, Strain/Indicator: TA1977, Metabolic Activation: NONE, Method: STANDARD PLATE): active; positive
- mutagenic call (Test System: AMES SALMONELLA TYPHIMURIUM, Strain/Indicator: TA1978, Metabolic Activation: NONE, Method: STANDARD PLATE): inactive; negative

Structure (SMILES): O=C/C=C/c1ccccc1[N+](=O)[O-]
- mutagenic call (Test System: AMES SALMONELLA TYPHIMURIUM, Strain/Indicator: TA100, Metabolic Activation: NONE, Method: PREINCUBATION): active; positive
- mutagenic call (Test System: AMES SALMONELLA TYPHIMURIUM, Strain/Indicator: TA100, Metabolic Activation: RAT, LIVER, S-9, AROCLOR 1254, Method: PREINCUBATION): active; positive

Structure (SMILES): Cc1ccc(S(=O)(=O)NC(=O)Nc2ncc([N+](=O)[O-])s2)cc1
- mutagenic call [1]: inactive; negative
- mutagenic call [4]: inactive; negative

Structure (SMILES): N[C@@H](CS)C(=O)NCC(=O)O
- mutagenic call (Test System: AMES SALMONELLA TYPHIMURIUM, Strain/Indicator: TA102, Metabolic Activation: NONE, Method: STANDARD PLATE): active; positive
